Here are results for three compounds from patent US9265773B2, “Tetracyclic heterocycle compounds and methods of use thereof for the treatment of viral diseases” (priority 2011, dated 2016).

The pIC50 is −log10 of the IC50, conventionally taken in molar units. Read a high pIC50 as a small IC50.

pIC50: −log10 of the molar value.

The test system of one experiment is HCV replicon genotype 1b. The experiment can be described thus: microbe, parasite or virus in culture. The class given is cell-based. The following applies: Hepatitis C virus, 96 h, genotype 1b replicon cells, incubated 96 hours, NS3/4A ELISA readout. (A replicon is a self-replicating genome or part of one, used to study replication in cells.)
The subject of the next experiment is HCV replicon genotype 1a. Briefly: microbe, parasite or virus in culture. In kind it is cell-based. The following applies: Hepatitis C virus, 96 h, genotype 1a replicon cells, incubated 96 hours, NS3/4A ELISA readout.

For the compound `CNC(=O)c1c(-c2ccc(F)cc2)oc2cc(N(C)S(C)(=O)=O)c(-c3ccc4c(n3)-c3cc5c(F)cccc5n3C(COC(=O)[C@@H](NC(=O)OC)C(C)C)O4)cc12` (stereo partly drawn) [Compound 103], the values for the negative-log IC50 (pIC50) in the experiment on HCV replicon genotype 1b and in the experiment with HCV replicon genotype 1a were 8.16 and 8.48, respectively.
`CNC(=O)c1c(-c2ccc(F)cc2)oc2cc(N3CC(=O)NC3=O)c(-c3ccc4c(n3)-c3cc5c(F)cccc5n3CO4)cc12` [Compound 179, 6-(2,4-dioxoimidazolidin-1-yl)-5-(11-fluoro-6H-pyrido[2′,3′:5,6][1,3]oxazino[3,4-a]indol-2-yl)-2-(4-fluorophenyl)-N-methylbenzofuran-3-carboxamide]: the pIC50 with HCV replicon genotype 1b was 8.13; in the experiment with HCV replicon genotype 1a it was 7.49.
Take `CNC(=O)c1c(-c2ccc(F)cc2)oc2cc(N(C)S(C)(=O)=O)c(-c3ccc4c(c3)-c3cc5ccccc5n3CC(O)(C(F)(F)F)CO4)cc12` (stereo not drawn) [Compound 79, 2-(4-fluorophenyl)-5-(7-hydroxy-7-(trifluoromethyl)-7,8-dihydro-6H-benzo[2,3][1,5]oxazocino[5,4-a]indol-2-yl)-N-methyl-6-(N-methylmethylsulfonamido)benzofuran-3-carboxamide]: the pIC50 is 7.96 in the experiment with HCV replicon genotype 1b and 8.00 in the experiment with HCV replicon genotype 1a.
